Source: patent US12503448B2, “Antibacterial and antiparasitic quinoxaline-2,3-diamine derivatives” (University College Cardiff Consultants Limited, priority 2019, dated 2025)
In brackets after ≈: the same amount, converted by molar mass. Like-named read-outs stand apart in the source and are kept apart here.

Legend:
S. mansoni adult worms = experiment: Adult worm drug screen (WHO scoring, WormassayGP2); assay type: cell-based, Schistosoma mansoni; settings: for Selectivity Index Adult: HepG2 CC50 over adult worm EC50; for EC50: Schistosoma mansoni, adult worms
Procedure, shortened: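 Adult worms perfused from MF-1 mice 7 weeks after infection with 180 cercariae. Motility after drug exposure scored on the WHO-TDR 0–4 microscopic scale (0 = no movement, 4 = normal), checked by image-based motion analysis. Deposited eggs counted.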

[1] = test system: Enterococcus faecalis ATCC 29212; experiment: Antibacterial MIC (ISO 20776-1); assay type: cell-based; settings: ATCC29212
Excerpt: (§1) In vitro Determination of Antibacterial Activity
(§2) Scientific Reports 8 (1), 2018. Bacterial strains of Enterococcus faecalis—ATCC 29212, NCTC 12201, ATCC 51299; Streptococcus pneumoniae—ATCC 49619, 18778, 21394, 21395; Haemophilus influenza—ATCC 49766, 18391, 17428; Staphylococcus aureus—NCTC 12493, ATCC BAA-077, ATCC 700698, 11051; used for testing the compounds, as previously described in “Clinical laboratory testing and in vitro diagnostics test systems—Susceptibility testing of infectious agents and evaluation of performance of antimicrobial susceptibility devices—Part 1: Reference methods for testing the in vitro activity of antimicrobial agentes against bacteria involved in infectious diseases, ISO/FDIS 20776-1:2006(E). All the procedures were carried out in a biosafety containment level 2.

[2] = test system: Enterococcus faecalis ATCC 51299; experiment: Antibacterial MIC (ISO 20776-1); assay type: cell-based; settings: ATCC51299; Enterococcus faecalis ATCC 51299, Vancomycin resistance, vanB
Excerpt: as §1, §2

[3] = test system: Enterococcus faecalis NCTC 12201; experiment: Antibacterial MIC (ISO 20776-1); assay type: cell-based; settings: NCTC12201; Enterococcus faecalis NCTC 12201, Vancomycin resistance, vanA
Excerpt: as §1, §2

[4] = test system: Haemophilus influenzae 17428; experiment: Antibacterial MIC (ISO 20776-1); assay type: cell-based; settings: Haemophilus influenzae 17428, Ampicillin resistance, PBP
Excerpt: as §1, §2

[5] = test system: Haemophilus influenzae 18391; experiment: Antibacterial MIC (ISO 20776-1); assay type: cell-based; settings: Haemophilus influenzae 18391, AMP/COA resistance, PBP/β-lactamase
Excerpt: as §1, §2

[6] = test system: Haemophilus influenzae ATCC 49766; experiment: Antibacterial MIC (ISO 20776-1); assay type: cell-based; settings: ATCC49766
Excerpt: as §1, §2

[7] = test system: Staphylococcus aureus 11051; experiment: Antibacterial MIC (ISO 20776-1); assay type: cell-based
Excerpt: as §1, §2

[8] = test system: Staphylococcus aureus ATCC 700698; experiment: Antibacterial MIC (ISO 20776-1); assay type: cell-based; settings: ATCC700698
Excerpt: as §1, §2

[9] = test system: Staphylococcus aureus ATCC BAA-977; experiment: Antibacterial MIC (ISO 20776-1); assay type: cell-based; settings: ATCCBAA977
Excerpt: as §1, §2

[10] = test system: Staphylococcus aureus NCTC 12493; experiment: Antibacterial MIC (ISO 20776-1); assay type: cell-based; settings: NCTC12493
Excerpt: as §1, §2

[11] = test system: Streptococcus pneumoniae 18778; experiment: Antibacterial MIC (ISO 20776-1); assay type: cell-based
Excerpt: as §1, §2

[12] = test system: Streptococcus pneumoniae 21394; experiment: Antibacterial MIC (ISO 20776-1); assay type: cell-based
Excerpt: as §1, §2

[13] = test system: Streptococcus pneumoniae 21395; experiment: Antibacterial MIC (ISO 20776-1); assay type: cell-based
Excerpt: as §1, §2

[14] = test system: Streptococcus pneumoniae ATCC 49619; experiment: Antibacterial MIC (ISO 20776-1); assay type: cell-based; settings: ATCC49619
Excerpt: as §1, §2

[15] = Semi thermodynamic solubility; settings: thermodynamic from solid
[16] = Metabolic stability in mouse liver microsomes; settings: for microsomal CLint at 1 μM: liver microsomes; for half-life at 1 μM: microsomes
[17] = Enterococcus faecalis ATCC 29212, read-out: MIC
[18] = Staphylococcus aureus 11051, Tetracycline resistance, read-out: MIC
[19] = Staphylococcus aureus ATCC 700698, Vancomycin resistance, hVISA, read-out: MIC
[20] = Staphylococcus aureus ATCC BAA-977, ERY/CLIND resistance, MLSB, read-out: MIC
[21] = Staphylococcus aureus NCTC 12493, Flucloxacillin resistance, mecA, read-out: MIC
[22] = Streptococcus pneumoniae 18778, ERY, TET resistance, read-out: MIC
[23] = Streptococcus pneumoniae 21394, Penicillin resistance, PBP, read-out: MIC
[24] = Streptococcus pneumoniae 21395, ERY, CLIND resistance, MLSB, read-out: MIC
[25] = Streptococcus pneumoniae ATCC 49619, read-out: MIC
[26] = Streptococcus pneumoniae, 18778
[27] = Streptococcus pneumoniae, 21394
[28] = Streptococcus pneumoniae, 21395

SMILES | Selectivity Index Adult (S. mansoni adult worms) | EC50 (S. mansoni adult worms) [nM] | MIC [1, 17] [µg/mL] | MIC [2] [µg/mL] | MIC [3] [µg/mL] | MIC [4] [µg/mL] | MIC [5] [µg/mL] | MIC [6] [µg/mL] | MIC [7, 18] [µg/mL] | MIC [8, 19] [µg/mL] | MIC [9, 20] [µg/mL] | MIC [10, 21] [µg/mL] | MIC [11, 22] [µg/mL] | MIC [12, 23] [µg/mL] | MIC [13, 24] [µg/mL] | MIC [14, 25] [µg/mL] | solubility thermodynamic [15] [µM] | microsomal CLint at 1 μM [16] [µL/min/mg] | half-life at 1 μM [16] [days] | MIC ([1]; Enterococcus faecalis) [µg/mL] | further results
COc1ccc(Nc2nc3ccc([N+](=O)[O-])cc3nc2Nc2ccc(OC)c(C(F)(F)F)c2)cc1C(F)(F)F [Compound 12, N^2, N^3-bis(4-methoxy-3-(tritluoromethyl)phenyl)-6-nitroquinoxaline-2,3-diamine] | 664 | 8.5 | 0.5 (≈ 0.903 µM) | 1 (≈ 1.81 µM) | 0.5 (≈ 0.903 µM) | > 128 | 64 (≈ 116 µM) | 64 (≈ 116 µM) | 2 (≈ 3.61 µM) | 1 (≈ 1.81 µM) | 1 (≈ 1.81 µM) | 1 (≈ 1.81 µM) | 16 (≈ 28.9 µM) | 8 (≈ 14.5 µM) | 8 (≈ 14.5 µM) | 8 (≈ 14.5 µM) | 4.09 (≈ 2.26 µg/mL) | 10.8 | 0.0889 |  | fraction unbound (Plasma protein binding): 0.0134
O=[N+]([O-])c1ccc2nc(Nc3cccc(Cl)c3)c(Nc3cccc(Cl)c3)nc2c1 [Compound 5, N^2, N^3-bis(3-chlorophenyl)-6-nitroquinoxaline-2,3-diamine] | 568 | 12 |  | 0.25 (≈ 0.586 µM) | 0.06 (≈ 0.141 µM) | 8 (≈ 18.8 µM) | 8 (≈ 18.8 µM) | 4 (≈ 9.38 µM) |  |  |  |  |  |  |  |  |  |  |  | 0.25 (≈ 0.586 µM) | MIC ([7]; Staphylococcus aureus, 11051): 0.125 µg/mL (≈ 0.293 µM); MIC ([8]; Staphylococcus aureus): 0.125 µg/mL (≈ 0.293 µM); MIC ([9]; Staphylococcus aureus): 0.125 µg/mL (≈ 0.293 µM); MIC ([10]; Staphylococcus aureus): 0.06 µg/mL (≈ 0.141 µM); MIC [11, 26]: 8 µg/mL (≈ 18.8 µM); MIC [12, 27]: 4 µg/mL (≈ 9.38 µM); MIC [13, 28]: 4 µg/mL (≈ 9.38 µM); MIC ([14]; Streptococcus pneumoniae): 4 µg/mL (≈ 9.38 µM)
O=[N+]([O-])c1ccc2nc(Nc3ccc(C(F)(F)F)cc3)c(Nc3ccc(C(F)(F)F)cc3)nc2c1 [Compound 11, 6-nitro-N^2, N^3-bis(4-(trifluoromethyl)phenyl)quinoxaline-2,3-diamine] | 2320 | 6.7 | 0.06 (≈ 0.122 µM) | 0.25 (≈ 0.507 µM) | 0.06 (≈ 0.122 µM) | 16 (≈ 32.4 µM) | 16 (≈ 32.4 µM) | 16 (≈ 32.4 µM) | 0.125 (≈ 0.253 µM) | 0.125 (≈ 0.253 µM) | 0.125 (≈ 0.253 µM) | 0.125 (≈ 0.253 µM) | 4 (≈ 8.11 µM) | 4 (≈ 8.11 µM) | 2 (≈ 4.05 µM) | 2 (≈ 4.05 µM) | 32.8 (≈ 16.2 µg/mL) | 0.134 | 7.15 |  | 
O=[N+]([O-])c1ccc2nc(Nc3ccc(F)c(C(F)(F)F)c3)c(Nc3ccc(F)c(C(F)(F)F)c3)nc2c1 [Compound 7, N^2, N^3-bis(4-fluoro-3-(trifluoromethyl)phenyl)-6-nitroquinoxaline-2,3-diamine] | 705 | 11 |  | 0.5 (≈ 0.945 µM) | 0.5 (≈ 0.945 µM) | > 64 | > 64 | > 64 |  | 0.5 (≈ 0.945 µM) |  |  |  |  |  |  |  |  |  | 1 (≈ 1.89 µM) | MIC ([7]; Staphylococcus aureus, 11051): 0.5 µg/mL (≈ 0.945 µM); MIC ([9]; Staphylococcus aureus): 0.5 µg/mL (≈ 0.945 µM); MIC ([10]; Staphylococcus aureus): 0.5 µg/mL (≈ 0.945 µM); MIC [11, 26]: 32 µg/mL (≈ 60.5 µM); MIC [12, 27]: 32 µg/mL (≈ 60.5 µM); MIC [13, 28]: 8 µg/mL (≈ 15.1 µM); MIC ([14]; Streptococcus pneumoniae): 8 µg/mL (≈ 15.1 µM)
